# Assay results as given in article PMC8098127, “A new crystal form of GABARAPL2” (Acta Crystallographica. Section F, Structural Biology …, 2021).
# Target: T1, GABARAPL2 (Homo sapiens, UniProt P60520)
# T1 construct: GST (N, cleaved yes); made in house; host or cells: E. coli BL21 (DE3)
# Assay: Surface plasmon resonance (SPR) binding of GABARAPL2 to captured NDP52 I133W LIR peptide, steady state
# Settings: full-length GABARAPL2 (C-terminal Phe117 present) injected over N-terminal LC-biotin peptide on streptavidin chip, BIAcore S200, 10 mM HEPES, 150 mM NaCl, 3.4 mM EDTA, 0.05% Tween pH 7.4, threefold, ten-step dilution series, injected 160 s, 800 s dissociation, steady-state fit, report point 145 s after injection
# Experimental: GABARAPL2 was expressed and purified as described previously (Muhlinen et al., 2012[▸]). Briefly, Escherichia coli strain BL21 (DE3) cells were transformed with a pETM-30 plasmid harbouring the GABARAPL2 gene (Table 1 ▸). The cells were grown in 1 l Luria Broth (LB) medium supplemented with 100 mg l^−1 kanamycin at 37°C with agitation. Gene expression was induced when the cell density (OD600) reached approximately 0.6 by the addition of […] isopropyl β-D-1-thiogalactopyranoside (IPTG) for 3 h. Cell pellets were obtained by centrifugation at 5000g for 10 min and were lysed by sonication in lysis buffer (50 mM Tris pH 8.0, 150 mM NaCl, 1 mM EDTA) at 4°C. The lysate was clarified by centrifugation at 45 000g for 45 min and was filtered through a […] filter and immobilized on a column containing 1 ml Gluthathione Sepharose 4B resin (GE Life Sciences). GABARAPL2 was cleaved from the GST fusion protein on-column with 200 µg TEV protease and 0.5 mM TCEP overnight at 4°C. […]
# Surface plasmon resonance (SPR) binding assays were performed using a BIAcore S200 in SPR buffer consisting of 10 mM HEPES, 150 mM NaCl, 3.4 mM EDTA, 0.05% Tween pH 7.4. […] The sensorgrams were analysed at steady state using a report point 145 s after injection, averaging the response over 5 s. […]
# T1 sequence (P60520 with tags, fused parts or gaps): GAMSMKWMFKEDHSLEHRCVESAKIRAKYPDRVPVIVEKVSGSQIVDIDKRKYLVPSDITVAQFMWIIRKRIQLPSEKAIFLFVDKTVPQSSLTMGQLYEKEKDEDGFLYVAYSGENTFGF
structure (smiles),measurement,setting,value
"CC(C)C[C@H](NC(=O)[C@H](Cc1c[nH]c2ccccc12)NC(=O)[C@H](CC(=O)O)NC(=O)[C@H](CCC(=O)O)NC(=O)[C@H](CCC(=O)O)NC(=O)[C@H](CC(N)=O)NC(=O)[C@@H](N)CCC(=O)O)C(=O)N[C@H](C(=O)N[C@H](C(=O)N[C@H](C(=O)N[C@H](C(=O)N[C@@H](CCC(N)=O)C(=O)NCC(=O)N[C@@H](CCC(=O)O)C(=O)O)[C@@H](C)O)[C@@H](C)O)C(C)C)C(C)C [NDP52 I133W LIR peptide, ENEEDWLVVTTQGE]",Kd,SPR Experiment 1,4.85 µM
same,Kd,SPR Experiment 2,5.07 µM
